In brackets after ≈: the same amount, converted by molar mass. Several values for one entry are separate records, joined by “and”; a condition that tells them apart may be missing. Equal values may be shown once. One block for each molecule: values may come before it.
Columns and labels:
Assay in all cases: ≥ marks a high value that may be exact or a test limit, other limits are often not marked, values filed in µg/mL are converted to µM
[1] = test system: Staphylococcus aureus ATCC 43300
[2] = test system: Escherichia coli ATCC 25922
[3] = test system: Cryptococcus neoformans ATCC 208821
[4] = test system: Candida albicans ATCC 90028
[5] = test system: Klebsiella pneumoniae ATCC 700603
[6] = test system: Pseudomonas aeruginosa ATCC 27853
[7] = test system: Acinetobacter baumannii ATCC 19606
Vibrio harveyi = test system: Vibrio harveyi
Aeromonas hydrophila = test system: Aeromonas hydrophila
Streptococcus mutans = test system: Streptococcus mutans
[8] = test system: Candida albicans F7-39/IDE99
Escherichia coli B = test system: Escherichia coli B
[9] = test system: Micrococcus luteus CCM 144
Staphylococcus aureus = test system: Staphylococcus aureus
Pseudomonas aeruginosa = test system: Pseudomonas aeruginosa
Bacillus subtilis 168 = test system: Bacillus subtilis 168
Escherichia coli MG1655 = test system: Escherichia coli MG1655
[10] = test system: Pseudomonas syringae pv. syringae EPS 94
[11] = test system: Erwinia amylovora PMV 6076
[12] = test system: Staphylococcus aureus ATCC BAA-1556

Compound: C[C@H](NC(=O)[C@@H](NC(=O)[C@H](CCCN=C(N)N)NC(=O)[C@H](CO)NC(=O)CNC(=O)[C@H](CCCN=C(N)N)NC(=O)[C@H](CCC(N)=O)NC(=O)[C@@H](NC(=O)[C@H](CO)NC(=O)[C@H](CCC(N)=O)NC(=O)CNC(=O)[C@H](Cc1cnc[nH]1)NC(=O)CNC(=O)[C@H](CO)NC(=O)[C@H](Cc1cnc[nH]1)NC(=O)[C@H](C)NC(=O)[C@@H](N)Cc1cnc[nH]1)[C@@H](C)O)[C@@H](C)O)C(=O)NCC(=O)N[C@@H](CCCN=C(N)N)C(=O)O [HAHSGHGQSTQRGSRTAGR]
MIC [1]: > 16.1 µM
MIC [2]: > 16.1 µM
MIC [3]: 16.1 µM (≈ 32 µg/mL)
MIC [4]: 16.1 µM (≈ 32 µg/mL)
MIC [5]: > 16.1 µM
MIC [6]: > 16.1 µM
MIC [7]: > 16.1 µM

Compound: CC[C@H](C)[C@H](NC(=O)[C@H](C)NC(=O)[C@H](CCCN=C(N)N)NC(=O)[C@H](Cc1cnc[nH]1)NC(=O)[C@@H](NC(=O)[C@H](C)NC(=O)[C@H](CCCN=C(N)N)NC(=O)[C@@H](NC(=O)CNC(=O)[C@H](Cc1cnc[nH]1)NC(=O)[C@H](CO)NC(=O)[C@@H](NC(=O)[C@H](Cc1c[nH]c2ccccc12)NC(=O)CNC(=O)[C@@H](NC(=O)[C@@H](NC(=O)[C@H](Cc1cnc[nH]1)NC(=O)[C@H](Cc1cnc[nH]1)NC(=O)[C@@H](NC(=O)[C@@H](N)Cc1ccccc1)[C@@H](C)CC)[C@@H](C)CC)[C@@H](C)CC)[C@@H](C)CC)C(C)C)[C@@H](C)CC)C(=O)N[C@@H](C)C(N)=O [FIHHIIGWISHGVRAIHRAIA]
MIC (Vibrio harveyi): 16 µM (≈ 38.5 µg/mL)
MIC (Aeromonas hydrophila): 16 µM (≈ 38.5 µg/mL)

Compound: NCCCC[C@H](NC(=O)[C@H](Cc1c[nH]c2ccccc12)NC(=O)[C@H](Cc1c[nH]c2ccccc12)NC(=O)[C@H](Cc1c[nH]c2ccccc12)NC(=O)[C@H](CCCN=C(N)N)NC(=O)[C@H](CCCN=C(N)N)NC(=O)[C@@H](N)CCCN=C(N)N)C(=O)O [RRRWWWK]
MIC (Streptococcus mutans): ≥ 53.3 µM

Compound: CC[C@H](C)[C@H](NC(=O)[C@H](C)NC(=O)[C@H](CCCN=C(N)N)NC(=O)[C@@H](NC(=O)CNC(=O)[C@H](Cc1cnc[nH]1)NC(=O)[C@H](CO)NC(=O)[C@@H](NC(=O)[C@H](Cc1c[nH]c2ccccc12)NC(=O)CNC(=O)[C@@H](NC(=O)[C@@H](NC(=O)[C@H](Cc1cnc[nH]1)NC(=O)[C@H](Cc1cnc[nH]1)NC(=O)[C@@H](NC(=O)[C@@H](N)Cc1ccccc1)[C@@H](C)CC)[C@@H](C)CC)[C@@H](C)CC)[C@@H](C)CC)C(C)C)C(=O)N[C@@H](C)C(=O)N[C@@H](CCCN=C(N)N)C(=O)N[C@@H](C)C(=O)N[C@H](C(=O)N[C@@H](Cc1cnc[nH]1)C(N)=O)[C@@H](C)CC [FIHHIIGWISHGVRAIARAIH]
MIC (Vibrio harveyi): 16 µM (≈ 38.5 µg/mL)
MIC (Aeromonas hydrophila): ≥ 128 µM
MIC (Escherichia coli MG1655): 8 µM and 16 µM

Compound: CC[C@H](C)[C@H](NC(=O)[C@H](CCCCN)NC(=O)[C@H](CCCCN)NC(=O)[C@H](Cc1ccccc1)NC(=O)[C@H](CC(C)C)NC(=O)[C@H](CCCCN)NC(=O)[C@H](CCCCN)NC(=O)CN)C(=O)N[C@@H](CC(C)C)C(=O)N[C@@H](CCCCN)C(=O)N[C@@H](Cc1ccc(O)cc1)C(=O)N[C@@H](CC(C)C)C(=O)N[C@@H](C)C(=O)NCC(=O)N1CCC[C@H]1C(=O)N[C@@H](C)C(=O)N[C@@H](CCCCN)C(=O)N[C@@H](Cc1ccccc1)C(=O)N[C@@H](CC(C)C)C(=O)N[C@@H](Cc1cnc[nH]1)C(=O)N[C@@H](CO)C(=O)N[C@@H](C)C(=O)N[C@@H](CCCCN)C(=O)O [GKKLFKKILKYLAGPAKFLHSAK]
MIC [10]: 3.54 µM (≈ 9.15 µg/mL)
MIC [11]: 1.77 µM (≈ 4.57 µg/mL)

Compound: CC(C)C[C@H](NC(=O)[C@H](Cc1c[nH]c2ccccc12)NC(=O)[C@H](Cc1c[nH]c2ccccc12)NC(=O)[C@H](CC(C)C)NC(=O)[C@H](Cc1c[nH]c2ccccc12)NC(=O)[C@H](Cc1c[nH]c2ccccc12)NC(=O)[C@H](CC(C)C)NC(=O)[C@H](CCCN=C(N)N)NC(=O)[C@@H](N)Cc1c[nH]c2ccccc12)C(N)=O [WRLWWLWWL]
MIC [12]: 6.25 µM (≈ 9.02 µg/mL)

Compound: CC(C)C[C@H](NC(=O)CNC(=O)[C@H](C)NC(=O)CNC(=O)[C@H](Cc1c[nH]c2ccccc12)NC(=O)[C@H](CC(N)=O)NC(=O)[C@@H](N)CC(C)C)C(=O)N[C@@H](CCCCN)C(=O)N[C@@H](Cc1cnc[nH]1)C(=O)NCC(=O)NCC(=O)N[C@@H](CCCCN)C(N)=O [LNWGAGLKHGGK]
MIC [8]: ≥ 100 µM
MIC (Escherichia coli B): ≥ 100 µM
MIC [9]: ≥ 100 µM
MIC (Staphylococcus aureus): > 100 µM
MIC (Pseudomonas aeruginosa): > 100 µM
MIC (Bacillus subtilis 168): ≥ 100 µM

Compound: CC[C@H](C)[C@H](NC(=O)[C@H](Cc1c[nH]c2ccccc12)NC(=O)[C@H](CCCN=C(N)N)NC(=O)[C@H](CCCN=C(N)N)NC(=O)[C@@H](N)Cc1c[nH]c2ccccc12)C(=O)N[C@@H](CCCN=C(N)N)C(=O)N[C@@H](Cc1c[nH]c2ccccc12)C(=O)N[C@@H](CC(C)C)C(N)=O [WRRWIRWL]
MIC [12]: 25 µM (≈ 31.8 µg/mL)

Compound: CC[C@H](C)[C@H](NC(=O)[C@@H](N)Cc1c[nH]c2ccccc12)C(=O)N[C@@H](CCCN=C(N)N)C(=O)N[C@@H](Cc1c[nH]c2ccccc12)C(=O)N[C@@H](CC(C)C)C(N)=O [WIRWL]
MIC [12]: ≥ 100 µM

Compound: CC[C@H](C)[C@H](NC(=O)[C@H](C)NC(=O)[C@H](CCCN=C(N)N)NC(=O)[C@H](Cc1cnc[nH]1)NC(=O)[C@@H](NC(=O)[C@H](C)NC(=O)[C@H](CCCN=C(N)N)NC(=O)[C@@H](NC(=O)CNC(=O)[C@H](C)NC(=O)[C@H](CO)NC(=O)[C@@H](NC(=O)[C@H](Cc1c[nH]c2ccccc12)NC(=O)CNC(=O)[C@@H](NC(=O)[C@@H](NC(=O)[C@H](Cc1cnc[nH]1)NC(=O)[C@H](Cc1cnc[nH]1)NC(=O)[C@@H](NC(=O)[C@@H](N)Cc1ccccc1)[C@@H](C)CC)[C@@H](C)CC)[C@@H](C)CC)[C@@H](C)CC)C(C)C)[C@@H](C)CC)C(=O)N[C@@H](Cc1cnc[nH]1)C(N)=O [FIHHIIGWISAGVRAIHRAIH]
MIC (Vibrio harveyi): ≥ 64 µM
MIC (Aeromonas hydrophila): ≥ 128 µM
MIC (Escherichia coli MG1655): 8 µM and 16 µM

The next lines start with the values.

MIC [8]: 11.3 µM (≈ 16 µg/mL)
MIC (Escherichia coli B): ≥ 70 µM
MIC [9]: 10.8 µM (≈ 15.3 µg/mL)
MIC (Staphylococcus aureus): 100 µM (≈ 142 µg/mL)
MIC (Pseudomonas aeruginosa): 93.3 µM (≈ 132 µg/mL)
MIC (Bacillus subtilis 168): 13.3 µM (≈ 18.9 µg/mL)
Compound: CC[C@H](C)[C@H](NC(=O)[C@H](C)NC(=O)CNC(=O)[C@H](Cc1c[nH]c2ccccc12)NC(=O)[C@H](CC(N)=O)NC(=O)[C@@H](N)CC(C)C)C(=O)N[C@@H](CC(C)C)C(=O)N[C@@H](CCCCN)C(=O)N[C@@H](Cc1cnc[nH]1)C(=O)N[C@H](C(=O)N[C@@H](CCCCN)C(=O)N[C@@H](CCCCN)C(N)=O)[C@@H](C)CC [LNWGAILKHIKK]

MIC (Streptococcus mutans): ≥ 183 µM
Compound: CC[C@H](C)[C@H](NC(=O)[C@H](CCC(N)=O)NC(=O)[C@H](CCCCN)NC(=O)[C@@H](NC(=O)[C@H](CCC(=O)O)NC(=O)[C@H](CCC(N)=O)NC(=O)[C@H](CC(C)C)NC(=O)[C@@H](NC(=O)[C@@H](N)CCCN=C(N)N)C(C)C)[C@@H](C)CC)C(=O)N[C@@H](CC(C)C)C(=O)N[C@@H](CCCCN)C(=O)O [RVLQEIKQILK]

MIC [1]: > 14.7 µM
MIC [2]: > 14.7 µM
MIC [3]: 14.7 µM (≈ 32 µg/mL)
MIC [4]: 14.7 µM (≈ 32 µg/mL)
MIC [5]: > 14.7 µM
MIC [6]: > 14.7 µM
MIC [7]: > 14.7 µM
Compound: CC(C)C[C@H](NC(=O)CNC(=O)[C@H](CO)NC(=O)CNC(=O)[C@H](CCCN=C(N)N)NC(=O)[C@H](CCCN=C(N)N)NC(=O)CN)C(=O)NCC(=O)N[C@@H](CCCN=C(N)N)C(=O)N[C@@H](CO)C(=O)N[C@@H](CO)C(=O)N[C@@H](CO)C(=O)N[C@@H](CCCN=C(N)N)C(=O)NCC(=O)N[C@@H](CCC(N)=O)C(=O)N[C@@H](CCCN=C(N)N)C(=O)NCC(=O)N[C@@H](CO)C(=O)NCC(=O)N[C@@H](CO)C(=O)NCC(=O)N[C@@H](CCCN=C(N)N)C(=O)O [GRRGSGLGRSSSRGQRGSGSGR]

MIC [12]: ≥ 100 µM
Compound: CC(C)C[C@H](NC(=O)[C@H](CC(C)C)NC(=O)[C@H](Cc1c[nH]c2ccccc12)NC(=O)[C@H](CCCCN)NC(=O)[C@H](CC(C)C)NC(=O)[C@H](CC(C)C)NC(=O)[C@H](CCCCN)NC(=O)[C@@H](N)CCCCN)C(N)=O [KKLLKWLL]

— DBAASP
